In one series the test system is CYP3A4. The series is described as follows: In vitro assessment of CYP3A4 induction in cryopreserved human hepatocytes (mRNA level). The series is classed as in vitro ADME. On the procedure: Preparation and Plating of Human Hepatocytes • 1. The cryopreserved human hepatocytes were thawed in 37° C. water bath and diluted by plating medium to a seeding density of 0.55×10^6 cells/mL. • 2. Transfer 100 μL to each well of collagen I coated 96-well plate. Place plate(s) in incubator and incubate at 37° C. for 4-6 hours. • 3. After incubation, observe cell morphology, agitate plate(s) to loosen debris, and replace medium. Place plate in incubator and incubate for 18 hours. Incubation with Test Compound(s) • 1. Prepare dilute test compound and positive control inducers with 37° C. prepared incubation medium to respective working concentrations (Table 11). Final concentration of DMSO in the treatment group will be 0.1%. Prepare 25 mM chlorpromazine in DMSO and dilute 1000-fold with incubation medium as a cytotoxicity control. • 2. Remove the Hepatocyte plate from the incubator. Observe cell morphology. Replace the medium in the appropriate wells with 125 μL of the toxicity controls, DMSO controls, inducers, or test article solutions, each in triplicate. • 3. After 24 hours and 48 hours, remove the Hepatocyte plate from the incubator and observe cell morphology. Renew the medium with test articles that freshly diluted from DMSO stocks. Return plate to the incubator. 4. mRNA Preparation and RT-PCR • 1. mRNA was prepared and measured using the Cells-to-Ct kit. Add DNase to Lysis solution. • 2. 15 μL of sample lysate was added to 35 µL of Reverse Transcription Master Mix (containing 2×RT Buffer, 20×RT Enzyme Mix and Nuclease-free Water) for a final 50 μL reaction volume. • 3. Separate PCR cocktails were prepared for CYP3A4; containing the CYP specific probe set and that of ACTB as the endogenous control gene. […] Reactions were analyzed on an Applied Biosystems Real Time PCR system (AB 7500). […] For mRNA level determination, the mRNA content in each well is expressed as 2^Ct(ACTB)-Ct(CYP). Fold of induction=mRNA(induced)/mRNA(vehicle) 3) The percent adjusted positive control is determined by: % of positive control=[(fold induction of test article)/(fold induction of positive control)]*100

Series [1] in a line: Metabolic stability of test compound in human hepatocyte cell. Particulars: cryopreserved human hepatocytes (suspension), human hepatocytes; for half-life at 1 uM: 0-120 min, read-out: T½; for CLint scaled at 1 uM: scale-up intrinsic clearance, scaling factor 2544.3, read-out: Clint (liver). The format is in vitro ADME. On the procedure:
• 1. The cryopreserved human hepatocytes cells were thawed in 37° C. water bath and diluted with pre-warmed incubation medium to a working cell density of 1×10^6 viable cells/mL. • 2. The 198 μL pre-warmed hepatocyte suspensions were spiked with 2 μL of 100 μM compound or reference compound(Verapamil) at a final concentration of 1.0 μM in a 96-well plate. The plate was incubated at 37° C., 900 rpm. All incubations will be performed in singlet. • 3. 25 μL aliquots of well contents were collected at time points of 0, 15, 30, 60, 90 and 120 minutes. The reactions were stopped by the addition of 6-fold volumes of cold acetonitrile with internal standards. • 4. After centrifugation for 25 minutes at 3,220 g. Aliquot of 100 μL of the supernatant was mixed with 100 μL of ultra-pure H2O and then used for LC-MS/MS analysis.
All calculations were carried out using Microsoft Excel. Peak areas were determined from extracted ion chromatograms. Determine the in vitro half-life (t1/2) of parent compound by regression analysis of the percent parent disappearance vs. time curve.
The in vitro half-life (in vitro t1/2) is determined from the slope value k:
Conversion of the in vitro t1/2(in min) into the in vitro intrinsic clearance (in vitro CLint, in μL/min/10^6 cells) is done using the following equation:
V=incubation volume (0.2 mL);
N=number of hepatocytes per well (0.2×10^6 cells).
Conversion of the in vitro t1/2(in min) into the scale-up intrinsic clearance (CLint(liver), in mL/min/kg) was done using the following equation:
CLint(liver)=kV/N×scaling factor

Series [2] concerns cryopreserved human hepatocytes. The series is described as follows: Cell viability assessment in CYP induction study (CellTiter-Fluor). The format is cell-based. Particulars: donor 1, 10 μM, 72 hours. On the procedure: Preparation and Plating of Human Hepatocytes • 1. The cryopreserved human hepatocytes were thawed in 37° C. water bath and diluted by plating medium to a seeding density of 0.55×10^6 cells/mL. • 2. Transfer 100 μL to each well of collagen I coated 96-well plate. Place plate(s) in incubator and incubate at 37° C. for 4-6 hours. • 3. After incubation, observe cell morphology, agitate plate(s) to loosen debris, and replace medium. Place plate in incubator and incubate for 18 hours.
Incubation with Test Compound(s) • 1. Prepare dilute test compound and positive control inducers with 37° C. prepared incubation medium to respective working concentrations (Table 11). Final concentration of DMSO in the treatment group will be 0.1%. Prepare 25 mM chlorpromazine in DMSO and dilute 1000-fold with incubation medium as a cytotoxicity control.
• 2. Remove the Hepatocyte plate from the incubator. Observe cell morphology. Replace the medium in the appropriate wells with 125 μL of the toxicity controls, DMSO controls, inducers, or test article solutions, each in triplicate. • 3. After 24 hours and 48 hours, remove the Hepatocyte plate from the incubator and observe cell morphology. Renew the medium with test articles that freshly diluted from DMSO stocks. […]
After 72 hours of treatment, warm the incubation medium to 37° C. […] Cell viability was assessed by CellTiter-Fluor™ Cell Viability Assay kit. […]

For `CCOC(=O)C1=C(CN2CCN3C(=S)N(CC(C)(C)C(=O)O)CC3C2)NC(c2nccs2)=N[C@H]1c1cccc(F)c1C` (single isomer, unassigned) [Compound 1A], in the series with CYP3A4 (CYP3A4, comparing with reference 2), the “CYP induction effect, in words” value is “no CYP induction effect”. Further, in series [1], the half-life at 1 uM turned out to be 3.82 h and the CLint scaled at 1 uM worked out at 7.7 mL/min/kg. Moreover, in series [2], the Cell viability was found to be 95%.

In the case of `CCOC(=O)C1=C(CN2CCN3C(=O)N(CC(C)(C)C(=O)O)C[C@@H]3C2)NC(c2nccs2)=N[C@H]1c1cccc(F)c1C` [Reference 2, reference compound], the “mRNA Percentage of positive control at 10 uM” value in the series with CYP3A4 (CYP3A4 mRNA, donor 1, 10 μM, positive control rifampicin) is 20.50%. In addition, in the series on CYP3A4 (CYP3A4 mRNA, donor 1, 10 μM, vs vehicle), the “mRNA Fold induction (Mean ± SD)” value was found to be 5.05 ± 0.61. Besides, in series [1], the half-life at 1 uM was found to be 2.45 h and the CLint scaled at 1 uM was 12 mL/min/kg. The Cell viability in series [2] was determined as 117%.
